These results are taken from patent US8642597B2, “Pyrazole compounds for controlling invertebrate pests” (BASF SE, priority 2007, dated 2014).

What all share (format): in vivo
The test system of assay [1] is Cotton Aphid (aphis gossypii, Mixed Life Stages). Nature of the assay: Cotton aphid (aphis gossypii, mixed life stages), cotyledon dip test. Conditions: 120 h, mortality counts after 5 days, in comparison with untreated controls. A digest of the protocol:
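Cotton seedlings at the cotyledon stage were infested with mixed-stage aphids transferred overnight from infested leaves, then dipped in compound solution (50:50 acetone:water with 100 ppm surfactant) and dried. Mortality was counted after 5 days.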

Assay [2] relates to Green Peach Aphid (Myzus persicae, Mixed Life Stages). Nature of the assay: Green peach aphid (Myzus persicae, mixed life stages), pepper leaf dip test. To be noted: foliar, 120 h, after 5 days, in comparison with untreated controls. The essentials:
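Pepper plants at the 2nd leaf-pair stage were infested with about 40 mixed-stage aphids, then leaf-dipped in graded concentrations of compound in 50:50 acetone:water with 100 ppm surfactant. Plants were held at about 25 °C, 20–40% RH, under 24 h light. Mortality relative to check plants was scored after 5 days.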

Assay [3] relates to Cowpea Aphid (aphis craccivora). Nature of the assay: Cowpea aphid (aphis craccivora), spray on potted cowpea plants. Conditions: population reduction assessed after 24, 72 and 120 hours, in comparison with untreated controls. As to the method:
The active compounds were formulated in 50:50 (vol:vol) acetone:water. The test solution was prepared at the day of use.
Potted cowpea plants colonized with 100-150 aphids of various stages were sprayed after the pest population had been recorded. Population reduction was assessed after 24, 72, and 120 hours.

Assay [4] has as its system Bean Aphid (Aphis fabae). Nature of the assay: Bean aphid (Aphis fabae), nasturtium plant dip test. Conditions: 72 h, after 3 days, in comparison with untreated controls. From the text:
(§1) The active compounds were formulated in 50:50 (vol:vol) acetone:water and 100 ppm Kinetica™ surfactant.
Nasturtium plants grown in Metro mix in the 1st leaf-pair stage (variety ‘Mixed Jewel’) were infested with approximately 2-30 laboratory-reared aphids by placing infested cut plants on top of the test plants. The cut plants were removed after 24 hr. Each plant was dipped into the test solution to provide complete coverage of the foliage, stem, protruding seed surface and surrounding cube surface and allowed to dry in the fume hood. The treated plants were kept at about 25° C. with continuous fluorescent light. Aphid mortality is determined after 3 days.

In assay [5] the test system is Vetch Aphid (Megoura viciae). Nature of the assay: Vetch aphid (Megoura viciae), bean leaf disk microtiterplate test. Conditions: foliar, 144 h, concentration of the test solution 2500 mg/L, 6 days. The essentials: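 Bean leaf disks on 0.8% agar with 2.5 ppm OPUS™ were sprayed with compound in 1:3 DMSO:water, then infested with 5–8 adult aphids. Kept 6 days at 23±1 °C, 50±5% RH under fluorescent light. Mortality and fecundity were scored visually from vital, reproduced aphids.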

In assay [6] the test system is Boll Weevil (Anthonomus grandis). Nature of the assay: Boll weevil (Anthonomus grandis), insect diet microtiter plate test. Conditions: 120 h, concentration of the test solution 2500 mg/L, egg and larval mortality after 5 days. The essentials: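 Compounds in 75:25 water:DMSO sprayed at 20 μl onto insect diet in wells holding 20–30 eggs, several concentrations, two replicates. Incubation 5 days at 23±1° C, 50±5% RH, followed by visual scoring of egg and larval mortality.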

The subject of assay [7] is Silverleaf Whitefly (bemisia argentifolii, adult). Nature of the assay: Silverleaf whitefly (bemisia argentifolii, adult), cotton cotyledon dip test. To be noted: 72 h, 3 days after treatment, in comparison with untreated controls. As to the method:
as §1
Selected cotton plants were grown to the cotyledon state (one plant per pot). The cotyledons were dipped into the test solution to provide complete coverage of the foliage and placed in a well-vented area to dry. Each pot with treated seedling was placed in a plastic cup and 10 to 12 whitefly adults (approximately 3-5 day old) were introduced. The insects were collected using an aspirator and an 0.6 cm, non-toxic Tygon® tubing (R-3603) connected to a barrier pipette tip. The tip, containing the collected insects, was then gently inserted into the soil containing the treated plant, allowing insects to crawl out of the tip to reach the foliage for feeding. The cups were covered with a reusable screened lid (150 micron mesh polyester screen PeCap from Tetko Inc). Test plants were maintained in the holding room at about 25° C. and 20-40% relative humidity for 3 days avoiding direct exposure to the fluorescent light (24 hour photoperiod) to prevent trapping of heat inside the cup. Mortality was assessed 3 days after treatment of the plants.

Assay [8] concerns Brown Planthopper (nilaparvata lugens). Nature of the assay: Brown planthopper (nilaparvata lugens), rice seedling spray test. To be noted: after 72 hours, in comparison with untreated controls. As for the experimental part: The active compounds were formulated as a 50:50 (vol:vol) acetone:water solution. Surfactant (Alkamuls EL 620) was added at the rate of 0.1% (vol/vol).
Rice seedlings were cleaned and washed 24 h before spraying. Potted rice seedlings were sprayed with 5 ml test solution, air dried, placed in cages and inoculated with 10 adults. Treated rice plants were kept at 28-29° C. and relative humidity of 50-60%. Percent mortality was recorded after 72 hours.

SMILES strings stand for the structures.

By mortality is commonly meant the percentage killed.

With `Cc1c(C(=O)Nc2cccnc2)cnn1-c1nccs1` [Compound 116], the mortality at 300 ppm is at least 75% in assay [1], at least 50% in assay [2] and at least 75% in assay [3]. In addition, in assay [4], the mortality at 10 ppm is at least 90%. In addition, the mortality at 2500 µg/mL in assay [5] is at least 80%; in assay [6], 100%.

Consider `O=C(Nc1cccnc1)c1cnn(-c2ccc(F)cc2)c1C(F)F` [Compound 94], for which the mortality at 300 ppm in assay [1] was at least 75%; in assay [2], at least 50%; in assay [3], at least 75%. The compound also showed a mortality at 10 ppm in assay [4] of at least 90%. The mortality at 2500 µg/mL in assay [5] was at least 80%; in assay [6], 100%.

Consider `CN(C(=O)c1cn(C)nc1C(F)(F)F)c1cccnc1` [Compound 29, 1-Methyl-3-trifluoromethyl-1H-pyrazole-4-carboxylic acid methyl-pyridin-3-yl-amide], for which the mortality at 300 ppm was at least 75% in assay [1], at least 50% in assay [2], at least 75% in assay [3] and at least 50% in assay [7]. In assay [4], this compound returned a mortality at 10 ppm of at least 90%. This compound also came in with a mortality at 2500 µg/mL in assay [5] of at least 80%.

On to `CN(C(=O)c1cn(C(F)F)nc1C(F)(F)F)c1cccnc1` [Compound 195], for which the mortality at 300 ppm in assay [1] is at least 75%; in assay [2], at least 50%; in assay [3], at least 75%; in assay [8] it was at least 50%. Also, in assay [5], the mortality at 2500 µg/mL is at least 80%.

Turning to `CCc1c(C(=O)Nc2cccnc2)cnn1-c1ccc(Cl)cc1` [Compound 143], the mortality at 300 ppm was at least 75% in assay [1], at least 50% in assay [2] and at least 75% in assay [3]. This compound returned a mortality at 10 ppm in assay [4] of at least 90%. Moreover, the mortality at 2500 µg/mL in assay [5] was at least 80%; in assay [6] it was 100%.
